According to ChEMBL document CHEMBL5360621, “Discovery and Optimization of a STING Agonist Platform for Application in Antibody Drug Conjugates” (J Med Chem, 2023):

These molecules were tested against Stimulator of interferon genes protein (Homo sapiens, UniProt Q86WV6) (assay: Agonist activity at STING in digitonin-permeabilized human THP1-Dual cells expressing NF-kappaB-SEAP and IRF-Lucia luciferase reporter assessed as increase in IRF-luciferase activation incubated for 24 hrs by QUANTI-Luc assay).
Chain of Stimulator of interferon genes protein (Q86WV6 whole entry): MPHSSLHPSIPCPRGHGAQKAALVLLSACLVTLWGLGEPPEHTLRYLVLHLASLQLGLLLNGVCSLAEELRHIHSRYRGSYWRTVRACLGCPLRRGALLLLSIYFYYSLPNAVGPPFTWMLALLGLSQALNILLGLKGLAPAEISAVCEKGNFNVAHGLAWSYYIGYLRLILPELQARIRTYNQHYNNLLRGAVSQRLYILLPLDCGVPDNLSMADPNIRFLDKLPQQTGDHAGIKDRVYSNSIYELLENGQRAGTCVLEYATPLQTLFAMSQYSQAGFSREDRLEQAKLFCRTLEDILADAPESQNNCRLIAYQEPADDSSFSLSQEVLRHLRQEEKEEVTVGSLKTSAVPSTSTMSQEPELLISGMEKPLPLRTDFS
Type: cell-based

| SMILES | EC50 |
| --- | --- |
| CCc1nc(C)oc1C(=O)Nc1nc2cc(C(N)=O)cc(OC)c2n1C/C=C/Cn1c(NC(=O)c2cnc(C)o2)nc2cc(C(N)=O)cc(OCCCO)c21 | > 100000 nM |
| CCc1nc(C)oc1C(=O)Nc1nc2cc(C(N)=O)cc(OCCCO)c2n1C/C=C/Cn1/c(=N/C(=O)c2cc(C)nn2CC)sc2cc(C(N)=O)cc(OC)c21 | 20 nM |
| CCc1nc(C)oc1C(=O)Nc1nc2cc(C(N)=O)cc(OCCCO)c2n1C/C=C/Cn1c(NC(=O)c2cc(C)nn2CC)nc2cc(C(N)=O)cc(OC)c21 | 1 nM |
| CCc1nc(C)oc1C(=O)/N=c1\sc2cc(C(N)=O)cnc2n1C/C=C/Cn1c(NC(=O)c2oc(C)nc2CC)nc2cc(C(N)=O)cc(OCCCO)c21 | 90 nM |
| CCc1nn(C)cc1C(=O)Nc1nc2cc(C(N)=O)cc(OCCCO)c2n1C/C=C/Cn1c(NC(=O)c2cc(C)nn2CC)nc2cc(C(N)=O)cc(OC)c21 | 20 nM |
| CCn1nc(C)cc1C(=O)Nc1nc2cc(C(N)=O)cc(OC)c2n1C/C=C/Cn1c(NC(=O)c2cc(C)nn2CC)nc2cc(C(N)=O)cc(OCCCC(=O)O)c21 | 18 nM |
| CCn1nc(C)cc1C(=O)Nc1nc2cc(C(N)=O)cnc2n1C/C=C/Cn1c(NC(=O)c2cc(C)nn2CC)nc2cc(C(N)=O)cc(OCCCO)c21 | 60 nM |
| COc1cc(C(N)=O)cc2nc(NC(=O)c3cnc(C)o3)n(C/C=C/Cn3c(NC(=O)c4cnc(C)o4)nc4cc(C(N)=O)cc(OCCCO)c43)c12 | > 100000 nM |
| CCn1nc(C)cc1C(=O)Nc1nc2cc(C(N)=O)cc(OC)c2n1C/C=C/Cn1c(NC(=O)c2cc(C)nn2CC)nc2cc(C(N)=O)cc(OCCCO)c21 | 1 nM |
| COc1cc(C(N)=O)cc2nc(NC(=O)c3cnc(C)n3C)n(C/C=C/Cn3c(NC(=O)c4cnc(C)n4C)nc4cc(C(N)=O)cc(OCCCO)c43)c12 | > 100000 nM |
| CCc1nc(C)oc1C(=O)Nc1nc2cc(C(N)=O)cc(OCCCO)c2n1C/C=C/Cn1c(NC(=O)c2cc(C)nn2CC)nc2cc(C(N)=O)cnc21 | 4 nM |
| CCc1nc(C)oc1C(=O)/N=c1\sc2cc(C(N)=O)cc(OCCCO)c2n1C/C=C/Cn1c(NC(=O)c2oc(C)nc2CC)nc2cc(C(N)=O)cnc21 | 150 nM |
| CCc1nc(C)sc1C(=O)Nc1nc2cc(C(N)=O)cc(OC)c2n1C/C=C/Cn1c(NC(=O)c2sc(C)nc2CC)nc2cc(C(N)=O)cc(OCCCO)c21 | 270 nM |
| CCn1nc(C)cc1C(=O)Nc1nc2cc(C(N)=O)cnc2n1C/C=C/Cn1c(NC(=O)c2oc(C)nc2C)nc2cc(C(N)=O)cc(OCCCO)c21 | 3200 nM |
| CCc1nc(C)oc1C(=O)Nc1nc2cc(C(N)=O)cnc2n1C/C=C/Cn1c(NC(=O)c2oc(C)nc2CC)nc2cc(C(N)=O)cc(OCCCO)c21 | 7 nM |
| CCc1ncoc1C(=O)/N=c1\sc2cc(C(N)=O)cc(OC)c2n1C/C=C/Cn1c(NC(=O)c2ocnc2CC)nc2cc(C(N)=O)cc(OCCCO)c21 | > 100000 nM |
| CCn1nc(C)cc1C(=O)Nc1nc2cc(C(N)=O)cc(OC)c2n1C/C=C/Cn1c(NC(=O)c2cc(C)nn2CC)nc2cc(C(N)=O)cc(OCCCN)c21 | 10 nM |
| CCn1nc(C)cc1C(=O)/N=c1\sc2cc(C(N)=O)cc(OC)c2n1C/C=C/Cn1c(NC(=O)c2cc(C)nn2CC)nc2cc(C(N)=O)cc(OCCCO)c21 | 5 nM |
| COc1cc(C(N)=O)cc2nc(NC(=O)c3nc(C)oc3C)n(C/C=C/Cn3c(NC(=O)c4nc(C)oc4C)nc4cc(C(N)=O)cc(OCCCO)c43)c12 | > 100000 nM |
| CCc1nc(C)oc1C(=O)Nc1nc2cc(C(N)=O)cc(OC)c2n1C/C=C/Cn1c(NC(=O)c2cc(C)nn2CC)nc2cc(C(N)=O)cc(OCCCO)c21 | 9 nM |
| CCc1nc(C)oc1C(=O)Nc1nc2cc(C(N)=O)cc(OC)c2n1C/C=C/Cn1c(NC(=O)c2oc(C)nc2CC)nc2cc(C(N)=O)cc(OCCCO)c21 | 1 nM |
| CCc1nc(C)oc1C(=O)/N=c1\sc2cc(C(N)=O)cc(OC)c2n1C/C=C/Cn1c(NC(=O)c2oc(C)nc2CC)nc2cc(C(N)=O)cc(OCCCO)c21 | 60 nM |
| CCc1nn(C)cc1C(=O)Nc1nc2cc(C(N)=O)cc(OC)c2n1C/C=C/Cn1c(NC(=O)c2cn(C)nc2CC)nc2cc(C(N)=O)cc(OCCCO)c21 | 5000 nM |
| CCc1nc(C)sc1C(=O)Nc1nc2cc(C(N)=O)cc(OCCCO)c2n1C/C=C/Cn1c(NC(=O)c2cc(C)nn2CC)nc2cc(C(N)=O)cc(OC)c21 | 20 nM |
| CCn1nc(C)cc1C(=O)/N=c1\sc2cc(C(N)=O)cc(OC)c2n1C/C=C/Cn1c(NC(=O)c2oc(C)nc2C)nc2cc(C(N)=O)cc(OCCCO)c21 | > 100000 nM |
